Test results published in patent EP4635944A1, “2-AZABICYCLO[3.1.1]HEPTANE COMPOUND” (Daiichi Sankyo Company, Limited, priority 2022, dated 2024).

What was measured:
human OX2R = molecular target: T1, human OX2R (Homo sapiens, UniProt O43614); experiment: Evaluation of OX2R agonist activity (intracellular calcium, CHO-K1 cells with forced expression of human OX2R); assay type: cell-based; settings: CHO-K1 cells expressing human OX2R; 100% = 5 µM of the reference compound; read-out: hOX2R EC50
T1 construct: host or cells: CHO-K1 (Chinese Hamster Ovary K1)
T1 sequence (O43614 1-444): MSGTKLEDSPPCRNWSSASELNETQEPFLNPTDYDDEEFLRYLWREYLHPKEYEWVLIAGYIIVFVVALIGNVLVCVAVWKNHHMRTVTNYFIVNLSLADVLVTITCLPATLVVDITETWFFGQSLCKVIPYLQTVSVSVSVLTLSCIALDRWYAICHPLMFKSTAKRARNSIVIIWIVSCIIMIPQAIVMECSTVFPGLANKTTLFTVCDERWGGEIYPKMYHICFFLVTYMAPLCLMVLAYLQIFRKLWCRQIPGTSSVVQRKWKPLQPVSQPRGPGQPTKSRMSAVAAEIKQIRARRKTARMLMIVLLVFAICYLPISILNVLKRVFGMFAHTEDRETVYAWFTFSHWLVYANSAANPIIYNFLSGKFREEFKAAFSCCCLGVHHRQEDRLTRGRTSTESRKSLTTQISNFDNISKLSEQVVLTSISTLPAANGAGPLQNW
Procedure, shortened: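 Cells seeded 7500/well, cultured 24 h, loaded with Fluo 4-AM (2.5 µg/mL final) plus probenecid for 30 min. Calcium response read as 480/540 nm excitation ratio; max–min signal 5–7 s after compound addition, normalized to buffer (0%) and 5 µM reference agonist (100%). EC50 from concentration series; 0.5% DMSO final.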

[1] = Evaluation of ERM production (GSH adduct detection in human liver microsomes); assay type: in vitro ADME; settings: test compound 500 µM, human liver microsomes 2 mg/mL, GSH/SI-GSH, 37°C for 60 minutes; negative = no metabolite GSH adduct pair peak
Description: Evaluation of ERM production from OX2R agonist
The test compound (final concentration was 500 µM, dissolved in DMSO/acetonitrile = 1/9), pooled human liver microsomes (final concentration was 2 mg/mL), L-glutathione reduced (GSH, final concentration was 0.5 mM), potassium phosphate buffer (pH 7.4, final concentration was 100 mM), and stable isotope labeled GSH (SI-GSH, final concentration was 0.5 mM) were admixed and preincubated at 37°C for 3 minutes. Thereafter, a mixed solution of glucose-6-phosphate (final concentration was 25 mM), β-nicotinamide adenine dinucleotide phosphate (final concentration was 0.25 mM), glucose-6-phosphate dehydrogenase (final concentration was 2 U/mL), and magnesium chloride (final concentration was 10 mM) was added, and incubation was performed at 37°C for 60 minutes. After the incubation, the reaction was stopped by adding a 2-fold volume of acetonitrile. A portion of the supernatant after centrifugation (about 1200 × g, 4°C, 15 minutes) was injected into a liquid chromatograph quadrupole time-of-flight mass spectrometer (Q-Tof) for analysis. The mass number of metabolites, GSH adduct and SI-GSH adduct, predicted from the chemical structural formula of the test compound was calculated, and the presence of the corresponding peaks in the measurement sample was checked. Peaks with the same retention time and approximately equal peak area of the detected peaks of the metabolites, GSH adduct and SI-GSH adduct, were extracted as pair peaks. The presence of a pair peak determined to be a metabolite GSH adduct was considered positive for ERM production potential, whereas the absence of such a peak was considered negative for ERM production potential.

male C57BL/6J mice = experiment: Acceleration of locomotor activity (arousal effect in mice); assay type: in vivo; settings: 10 mg/kg of body weight, orally; cumulative counts for one hour after administration; solvent administration group = 100%
Description: Acceleration of locomotor activity
Acceleration of locomotor activity in rodents can be an indicator of arousal. An experiment was carried out on the arousal effect of the test compound in mice, using the acceleration of locomotor activity as the indicator. For the experiment, male C57BL/6J mice (6 weeks old, THE JACKSON LABORATORY JAPAN, INC., 6 to 8 animals per group) were used. Mice were allowed to acclimate for 1 hour or longer in the rearing cage in the room where the measurement was to be performed, until the experiment. After the acclimation, the mice were placed in a locomotor activity measuring apparatus (the behavior analyzer SCANET-40 series, Melquest Ltd.) equipped with an infrared sensor to start the measurement. After 2 hours, either the solvent or the test compound (10 mg/kg of body weight) was orally administered, and the mice were immediately returned to the measuring apparatus and the measurement was further performed for 2 hours. The test compound was suspended in the 0.5 w/v% methylcellulose 400 solution (Wako Pure Chemical Industries, Ltd., Japan). The locomotor activity was counted every 5 minutes, and the cumulative counts for one hour after administration were calculated for each treatment group. The proportion of the locomotor activity of the test compound administration group to the solvent administration group whose locomotor activity was defined as 100% was calculated and shown in Table 2.

[2] = Evaluation of metabolic stability in human liver microsomes; assay type: in vitro ADME; settings: for metabolic stability compared to the corresponding compounds that were not deuterated: human liver microsomes, 30 minutes, deuterated at specific positions; for Human metabolic stability Residual ratio (%): test compound 1 µM, human liver microsomes 0.5 mg/mL, 30 minutes at 37°C
Description: Evaluation of metabolic stability of OX2R agonist
The test compound (final concentration was 1 µM, dissolved in DMSO/acetonitrile = 1/99), pooled human liver microsomes (final concentration was 0.5 mg/mL), and sodium phosphate buffer (pH 7.4, final concentration was 100 mM) were admixed and preincubated at 37°C for 15 minutes. Thereafter, a mixed solution of glucose-6-phosphate (final concentration was 10 mM), glucose-6-phosphate dehydrogenase (final concentration was 1 U/mL), and magnesium chloride (final concentration was 3.3 mM) was added and a certain amount of the mixture was collected. Then, an acetonitrile/methanol mixed solution (75/25, v/v) containing a 4.5-fold volume of internal standard substances (final concentrations: phenacetin: 1 ng/mL, niflumic acid: 15 ng/mL, furosemide: 20 ng/mL) was added to stop the reaction (0 min sample). Subsequently, β-nicotinamide adenine dinucleotide phosphate (final concentration was 1 mM) was added, and after 30 minutes of incubation at 37°C, a certain amount of the mixture was collected, to which an acetonitrile/methanol mixed solution (75/25, v/v) containing a 4.5-fold volume of the internal standard substances was added to stop the reaction (30 min sample). For both samples, a portion of the supernatant after centrifugation (about 1200 × g, 4°C, 15 minutes) was injected into a liquid chromatograph tandem quadrupole mass spectrometer (LC-MS/MS) for analysis. The metabolic stability was evaluated by comparing the test compound/internal standard substance ratio of the 30 min sample with the 0 min sample and calculating the residual ratio of the test compound. […]

Compound | ERM production potential [1] | EC50 (human OX2R) | Locomotor activity (%) (male C57BL/6J mice) | metabolic stability compared to the corresponding compounds that were not deuterated [2] | Human metabolic stability Residual ratio (%) [2]
[2H][C@](C)(O)C(=O)N1C2CC(C2)[C@H](NS(C)(=O)=O)[C@@H]1Cc1cccc(-c2ccccc2)c1F [Example 97, N-{(3S,4S)-3-[(2-Fluoro[biphenyl]-3-yl)methyl]-2-[(2R)-2-hydroxy(2-^2H)propanoyl]-2-azabicyclo[3.1.1]heptan-4-yl}methanesulfonamide] | negative | 0.021 µM | 601% | improved metabolic stability | 57%
[2H]C([2H])([2H])[C@@]([2H])(O)C(=O)N1C2CC(C2)[C@H](NS(=O)(=O)CC)[C@@H]1Cc1cccc(-c2ccccc2)c1F [Example 94, N-{(3S,4S)-3-[(2-Fluoro[biphenyl]-3-yl)methyl]-2-[(2R)-2-hydroxy(^2H4)propanoyl]-2-azabicyclo[3.1.1]heptan-4-yl}ethanesulfonamide] | negative | 0.022 µM |  |  | 
[2H]C([2H])([2H])[C@@]([2H])(O)C(=O)N1C2CC(C2)[C@H](NS(C)(=O)=O)[C@@H]1Cc1cc(F)cc(-c2ccccc2)c1F [Example 88, N-{(3S,4S)-3-[(2,5-Difluoro[biphenyl]-3-yl)methyl]-2-[(2R)-2-hydroxy(^2H4)propanoyl]-2-azabicyclo[3.1.1]heptan-4-yl}methanesulfonamide] | negative | 0.043 µM |  | improved metabolic stability | 59%
[2H]C([2H])([2H])[C@@]([2H])(O)C(=O)N1C2CC(F)(C2)[C@H](NS(C)(=O)=O)[C@@H]1Cc1cccc(-c2ccccc2)c1F [Example 89, N-{(3S,4R)-5-Fluoro-3-[(2-fluoro[biphenyl]-3-yl)methyl]-2-[(2R)-2-hydroxy(^2H4)propanoyl]-2-azabicyclo[3.1.1]heptan-4-yl}methanesulfonamide] |  | 0.018 µM | 412% | improved metabolic stability | 75%
[2H]C([2H])([2H])[C@@]([2H])(O)C(=O)N1C2CC(C2)[C@H](NS(C)(=O)=O)[C@@H]1Cc1cccc(-c2ccccc2)c1F [Example 76, N-{(3S,4S)-3-[(2-Fluoro[biphenyl]-3-yl)methyl]-2-[(2R)-2-hydroxy(^2H4)propanoyl]-2-azabicyclo[3.1.1]heptan-4-yl}methanesulfonamide] | negative | 0.018 µM |  | improved metabolic stability | 59%
[2H]C([2H])([2H])[C@@]([2H])(O)C(=O)N1C2CC(F)(C2)[C@H](NS(C)(=O)=O)[C@@H]1Cc1cc(F)cc(-c2ccccc2)c1F [Example 87, N-{(3S,4R)-3-[(2,5-Difluoro[biphenyl]-3-yl)methyl]-5-fluoro-2-[(2R)-2-hydroxy(^2H4)propanoyl]-2-azabicyclo[3.1.1]heptan-4-yl}methanesulfonamide] |  | 0.03 µM | 221% | improved metabolic stability | 70%

Further lines, with some results ahead:

ERM production potential [1] | Compound | EC50 (human OX2R) | Locomotor activity (%) (male C57BL/6J mice) | metabolic stability compared to the corresponding compounds that were not deuterated [2] | Human metabolic stability Residual ratio (%) [2]
negative | CC(C)(O)C(=O)N1C2CC(C2)C(NS(C)(=O)=O)C1Cc1cc(F)cc(-c2cccc(Cl)c2)c1F (single isomer, unassigned) [Example 67, N-[(3S,4S)-3-[(3'-Chloro-2,5-difluoro[biphenyl]-3-yl)methyl]-2-(2-hydroxy-2-methylpropanoyl)-2-azabicyclo[3.1.1]heptan-4-yl]methanesulfonamide or N-[(3R,4R)-3-[(3'-chloro-2,5-difluoro[biphenyl]-3-yl)methyl]-2-(2-hydroxy-2-methylpropanoyl)-2-azabicyclo[3.1.1]heptan-4-yl]methanesulfonamide] | 0.07 µM |  |  | 
negative | CC(C)(O)C(=O)N1C2CC(F)(C2)[C@H](NS(C)(=O)=O)[C@@H]1Cc1cc(F)cc(-c2cccc(Cl)c2)c1F [Example 77, N-[(3S,4R)-3-[(3'-Chloro-2,5-difluoro[biphenyl]-3-yl)methyl]-5-fluoro-2-(2-hydroxy-2-methylpropanoyl)-2-azabicyclo[3.1.1]heptan-4-yl]methanesulfonamide] | 0.046 µM |  |  | 
negative | CS(=O)(=O)N[C@H]1C2CC(C2)N(C(=O)C2(O)CCC2)[C@H]1Cc1cccc(-c2ccccc2)c1F [Example 62, N-{(3S,4S)-3-[(2-Fluoro[biphenyl]-3-yl)methyl]-2-[(1-hydroxycyclobutyl)carbonyl]-2-azabicyclo[3.1.1]heptan-4-yl}methanesulfonamide] | 0.014 µM |  |  | 
negative | C[C@@H](O)C(=O)N1C2CC(C2)[C@H](NS(C)(=O)=O)[C@@H]1Cc1cc(F)cc(-c2ccccc2)c1F [Example 58, N-{(3S,4S)-3-[(2,5-Difluoro[biphenyl]-3-yl)methyl]-2-[(2R)-2-hydroxypropanoyl]-2-azabicyclo[3.1.1]heptan-4-yl}methanesulfonamide] | 0.038 µM |  |  | 34%
negative | C[C@@H](O)C(=O)N1C2CC(C2)[C@H](NS(C)(=O)=O)[C@@H]1Cc1cccc(-c2ccn(C)n2)c1F [Example 32, N-{(3S,4S)-3-[2-Fluoro-3-(1-methyl-1H-pyrazol-3-yl)benzyl]-2-[(2R)-2-hydroxypropanoyl]-2-azabicyclo[3.1.1]heptan-4-yl}methanesulfonamide] | 0.535 µM |  |  | 
negative | CC(C)(O)C(=O)N1C2CC(C2)[C@H](NS(C)(=O)=O)[C@@H]1Cc1cccc(-c2ccccc2)c1F [Example 10, N-[(3S,4S)-3-[(2-Fluoro[biphenyl]-3-yl)methyl]-2-(2-hydroxy-2-methylpropanoyl)-2-azabicyclo[3.1.1]heptan-4-yl]methanesulfonamide] | 0.297 µM |  |  | 
